How the values were obtained:
[1] = system: patients with moderate to severe atopic dermatitis; assay: Phase 2 randomized, double-blind, placebo-controlled study: efficacy (EASI, vIGA, pruritus NRS, patient-reported outcomes); type: in vivo, human; conditions: for reduction in EASI from baseline to week 12: 12 weeks (n=47); for delta versus placebo in vIGA 0 or 1 response at week 12: p<0.05
Method: A Phase 2, multicenter, randomized, double-blind, placebo-controlled study was conducted to assess the safety and efficacy of etrasimod in patients with moderate to severe atopic dermatitis. The primary endpoint measured was percent change in Eczema Area and Severity Index (EAST) from baseline to week 12, followed by a 4-week follow-up observation period. Secondary endpoints include the proportion of participants achieving EASI-75, proportion of participants with a validated Investigator Global Assessment (vIGA) 0 to 1, and percent change in peak pruritis. The trial enrolled approximately 140 patients and was conducted in study sites across the United States, Canada and Australia. An open-label extension of the trial is ongoing. The study included multiple periods: (i) up to a 4-week screening period (to determine subject eligibility); (ii) a 12-week double-blind treatment period with a 4-week safety follow-up period; and (iii) a 52-week open-label extension period followed by a 4-week safety follow-up period. Subjects with chronic AD for at least one year (as defined by Hanifin and Rajka criteria (Hanifin 1980)) despite optimized skin care (e.g., use of emollients, avoidance of irritants) whose disease is not adequately controlled with topical therapies, or for whom those therapies are not advisable, were equally randomized (1:1:1 ratio) to receive etrasimod (1 or 2 mg) or placebo. Etrasimod 1 or 2 mg tablets or matching placebo tablets were taken orally once daily during the double-blind treatment period. Etrasimod 2 mg tablets are taken orally once daily during the open-label extension period. There is no reference therapy (no placebo) during the open-label extension period. Inclusion Criteria: Subjects must meet ALL of the following inclusion criteria to be eligible for enrollment into the study. • 1. Men or women between ≥18 and ≤70 years of age at the time of informed consent. • 2. Chronic AD, defined by Hanifin and Rajka criteria (Hanifin 1980), that has been present for at least one year prior to the screening visit. • 3. Eczema Area and Severity Index (EAST)≥12 at the screening visit and ≥16 at the baseline visit. • 4. vIGA score≥3 (on the 0 to 4 vIGA scale, in which 3=moderate and 4=severe) involvement at the screening and baseline visits. • 5. Body surface area (BSA)≥10% of AD involvement at the screening and baseline visits. • 6. Recent history (within 6 months prior to the screening visit) of inadequate response to treatment with topical medications, or when topical treatments are otherwise medically inadvisable (e.g., because of important side effects or safety risks), which can be documented by medical records or by the history provided to the investigator by the subject despite optimized skin care (.e., avoidance of irritants, use of emollients). • 7. Willing to apply a dose of topical emollient/moisturizer at least once daily for ≥1 week prior to the baseline visit and willing to continue daily application over the course of the study without change (i.e., type, frequency, application). • 8. Willing and able to comply with all clinic visits and study-related procedures and understand and complete study-related questionnaires. • 9. Provide signed informed consent prior to conducting any procedures. Efficacy was assessed by changes in AD severity using EASI, vIGA, SCORing Atopic Dermatitis (SCORAD), and BSA. Symptoms of itch were assessed using the pruritus numeric rating scale (NRS). Patient-reported outcomes will also be assessed using the Dermatology Life Quality Index (DLQI), Patient Oriented Eczema Measure (POEM), and Patient Global Assessment (PGA).

[2] = system: patients with moderate to severe atopic dermatitis; assay: Phase 2 atopic dermatitis study: adverse events and tolerability; type: in vivo, human
heart rate = assay: Phase 2 atopic dermatitis study: heart rate effects after first dose; type: in vivo, human; conditions: for placebo corrected maximal mean heart rate decrease from baseline: 2 hours after first dose
From the text: (§1) The study included multiple periods: (i) up to a 4-week screening period (to determine subject eligibility); (ii) a 12-week double-blind treatment period with a 4-week safety follow-up period; and (iii) a 52-week open-label extension period followed by a 4-week safety follow-up period. Subjects with chronic AD for at least one year (as defined by Hanifin and Rajka criteria (Hanifin 1980)) despite optimized skin care (e.g., use of emollients, avoidance of irritants) whose disease is not adequately controlled with topical therapies, or for whom those therapies are not advisable, were equally randomized (1:1:1 ratio) to receive etrasimod (1 or 2 mg) or placebo. Etrasimod 1 or 2 mg tablets or matching placebo tablets were taken orally once daily during the double-blind treatment period. Etrasimod 2 mg tablets are taken orally once daily during the open-label extension period. There is no reference therapy (no placebo) during the open-label extension period.
There was a decrease of 1.5 bpm in the 1 mg group and a decrease of 6.7 bpm in the 2 mg group. […] After the first dose, the heart rate differences across the 3 groups came together by week 1 and were similar from weeks 2-12. One participant in the 2 mg etrasimod group had transient 2nd degree AVB Type 1 which was self-limited, and asymptomatic. The participant went on to further dosing without any cardiac changes or symptoms.

lymphocyte count = assay: Phase 2 atopic dermatitis study: absolute/peripheral lymphocyte count; type: in vivo, human
From the text: as §1
During the double-blind treatment period, etrasimod plasma concentrations and a complete blood count (CBC) including lymphocyte count were assessed on day 1 and before dosing at subsequent study visits. Study visits occurred at baseline, week 1, week 2, week 4, week 6, week 8, week 12, at the end of treatment, and at the week 16 follow-up visit. The absolute lymphocyte count (ALC) was included as part of the assessment.

UC patients = conditions: 2 mg QD for 12 weeks; cited from earlier work
healthy adult subjects = conditions: single doses up to 5 mg, repeated doses up to 4 mg QD; cited from earlier work

Which results are given for O=C(O)C[C@H]1CCc2c1[nH]c1ccc(OCc3ccc(C4CCCC4)c(C(F)(F)F)c3)cc21 [etrasimod, (R)-2-(7-(4-cyclopentyl-3-(trifluoromethyl)benzyloxy)-1,2,3,4-tetrahydrocyclopenta[b]indol-3-yl)acetic acid]?
patients achieving EASI-75 ([1]; 1 mg once daily, week 12): 27.7%; patients achieving vIGA of 0 or 1 and a reduction from baseline of >=2 points at week 12 ([1]; 1 mg once daily, week 12): 14.9%; reduction in EASI from baseline to week 12 ([1]; 1 mg orally once daily): 58.7%; proportion of patients with decrease in pruritus >=4 points at week 12 ([1]; 1 mg, week 12, p=0.61 vs placebo): 32.5%; improvement in EASI from baseline to week 4 ([1]; 2 mg dose group, week 4): statistically significant improvement; improvement in pruritis at week 4 ([1]; 2 mg dose group, week 4): statistically significant improvement; proportion of patients who achieved EASI-75 at week 4 ([1]; 2 mg dose group, week 4): statistically significant improvement; delta versus placebo in vIGA 0 or 1 response at week 12 ([1]; 2 mg group vs placebo): 16.8%; percent change in EASI over time versus placebo ([1]; 2 mg group without interruptions, weeks 4 to 12): significant at 4 weeks; patients achieving EASI-75 at week 12 ([1]; 2 mg group without study interruptions): 42.1%; patients achieving vIGA of 0 or 1 and reduction from baseline >=2 points at week 12 ([1]; 2 mg group without study interruptions (38 participants)): 36.8%; delta versus placebo in vIGA 0 or 1 response at week 12 ([1]; 2 mg group without study interruptions vs placebo): 23.8%; patients achieving EASI-75 ([1]; 2 mg once daily, week 12): 38.3%; patients achieving vIGA of 0 or 1 and a reduction from baseline of >=2 points at week 12 ([1]; 2 mg once daily, week 12): 29.8%; reduction in EASI from baseline to week 12 ([1]; 2 mg orally once daily): 57.2%; treatment response after restart of treatment ([1]; 2 mg patients with dose interruption, after restart): recaptured; EASI change from baseline in patients who ceased then reinitiated treatment ([1]; 2 mg patients with dose interruption, to week 12): improved rapidly after resumption; patient-reported and clinician-assessed outcomes versus placebo ([1]; 2 mg, over 12 weeks): improved patient-reported outcomes and clinician-assessed outcomes versus placebo; proportions of patients achieving vIGA score of 0 or 1, DLQI and POEM versus placebo ([1]; 2 mg, week 12): significantly greater proportions; proportion of patients with decrease in pruritus >=4 points at week 12 ([1]; 2 mg, week 12, p=0.15 vs placebo): 42.1%; pruritis NRC changes over time versus placebo ([1]; etrasimod group without interruptions): statistically significant from weeks 2-8; tolerability ([2]; 1 mg and 2 mg, 12-week double-blind period): well tolerated; cases of dyspnea ([2]; 2 mg treatment group): one case; adverse events related to heart rate ([2]; double-blind treatment period): no adverse events related to heart rate; cases of macular edema ([2]; double-blind treatment period): no cases; conjunctivitis, acne, venous thromboembolic events, opportunistic or serious infections ([2]; double-blind treatment period): no reports; blood pressure changes or symptoms associated with heart rate changes (heart rate; 1 mg and 2 mg groups, after first dose): not associated with any blood pressure changes or symptoms; placebo corrected maximal mean heart rate decrease from baseline (heart rate; 1 mg group): 1.5 bpm; placebo corrected maximal mean heart rate decrease from baseline (heart rate; 2 mg group): 6.7 bpm; participants with transient 2nd degree AVB Type 1 (heart rate; 2 mg group, self-limited, asymptomatic): One; patients with ALC measurement of Grade 3 (between 0.2x10e9 and 0.5x10e9 cells/L) (lymphocyte count; 2 mg group, between weeks 4 and 8): nine; maximal reduction in the peripheral lymphocyte count (lymphocyte count; 2 mg group, week 2): 43.6%; lymphocyte count after treatment withdrawal (lymphocyte count; 2 mg patients with dose interruption, between weeks 4 and 8): rapid rebound in lymphocyte count; endoscopic and symptomatic improvements versus placebo (UC patients): clinically meaningful and statistically significant endoscopic and symptomatic improvements; safety and tolerability in clinical trials (healthy adult subjects): safe and well-tolerated

— US20230414567A1, “METHODS OF TREATING CONDITIONS RELATED TO THE S1P1 RECEPTOR” (Arena Pharmaceuticals, Inc., priority 2020, published 2023)
